Measurements from article PMC13308190, “Endothelial progenitor cell susceptibility to DNA damaging and DDR-modulating compounds determines endothelial differentiation accuracy” (Stem Cell Research & Therapy, 2026).

Tests used:
Type in all cases: cell-based, mouse
[1] = tested on: EC d4 (endothelial progenitor cells); experiment: Western blot protein expression (densitometry); settings: EC d4 48 h
Procedure: (§1) Total protein cell extracts were obtained upon sonication in RIPA buffer (EpiShearTM Probe sonicator, Active Motif [La Hulpe, Belgium]). Protein concentrations were determined using the DC Protein Assay (BioRad [Munich, Germany]). Extracts were supplemented with Roti®-Load buffer (Carl Roth GmbH [Karlsruhe, Germany]) followed by heating (95 °C for 5 min). 20 µg of protein was separated by SDS-PAGE and transferred onto nitrocellulose membrane. After blocking (5% non-fat milk in TBS/0.1% Tween 20 or 5% BSA in TBS/0.1% Tween 20) (1 h, RT) membrane was incubated with primary antibodies (1:500–5000; overnight, 4 °C). After washing with TBS/0.1% Tween 20, peroxidase-conjugated secondary antibody (1:2000) was added (2 h, RT) and bands were visualized using ChemiDoxTM Touch imaging system (BioRad, Munich, Germany).

[2] = tested on: EC d6 (endothelial-like cells); experiment: Western blot protein expression (densitometry); settings: EC d6 24 h
Procedure: as §1

[3] = tested on: mESC; experiment: Western blot protein expression (densitometry); settings: mESC 24 h
Procedure: as §1

[4] = tested on: EC d4; experiment: DNA fiber spreading assay; settings: EC d4 48 h; HU: 5 mM, 1 h
Procedure: (§2) To analyze DNA replication fork progression, the DNA fiber spreading assay was performed. Briefly, cells were pulse-labeled with 20 µM CldU (20 min, 37 °C, 5% C0_2) and immediately afterwards with 200 µM IdU (20 min, 37 °C, 5% C02). Cell suspension was applied onto glass slides followed by cell lysis (0.5% SDS, 200 mM Tris–HCl, 50 mM EDTA). After incubation (6 min, RT), slides were tilted upwards to stretch the fibers, dried 6 min lying horizontally flat and fixed (5 min, RT) in methanol: acetic acid (3:1). After drying (7 min, lying horizontally flat) slides were stored overnight in 70% ethanol (4 °C). The next day samples were incubated in 100% methanol (5 min, RT) followed by denaturation in 2.5 M HCl (1 h, RT) and blocking (5% BSA in PBS, 1 h, 37 °C). DNA Fibers were stained with rat anti-BrdU (1:40) for CldU detection and mouse anti-BrdU (1:70) for IdU detection (in 0.5% BSA/PBS; 1 h, RT). After washing (0.05% Tween 20 in PBS and PBS) incubation with secondary antibodies anti-rat 488 (1:400) and anti-mouse 555 (1:250) was performed (1 h, RT, 0.5% BSA in PBS). Following washing with 0.05% Tween 20 in PBS and PBS, the slides were mounted with Fluoroshield (Sigma [Steinheim, Germany]). DNA fibers were analyzed microscopically (Olympus BX43 fluorescence microscope [40 objective]). The length of CldU (green) and IdU (red) tract was measured using ImageJ software, analyzing 200 fibers per experimental condition.

[5] = tested on: EC d6; experiment: DNA fiber spreading assay; settings: EC d6 24 h; HU: 5 mM, 1 h
Procedure: as §2

[6] = tested on: mESC; experiment: DNA fiber spreading assay; settings: mESC 24 h; HU: 5 mM, 1 h
Procedure: as §2

In the case of COc1cc([C@@H]2c3cc4c(cc3[C@@H](O[C@@H]3O[C@@H]5CO[C@@H](C)O[C@H]5[C@H](O)[C@H]3O)[C@H]3COC(=O)[C@H]23)OCO4)cc(OC)c1O [Eto, etoposide], the CHK1 protein ([1]; Eto lane of blot Fig 5D - B02) is reported as 0.7 Fold of mESC, the RAD51 protein ([1]; Eto lane of blot Fig 5D - B02) is reported as 1.0 Fold of mESC and the p-CHK2 protein ([1]; Eto lane of blot Fig 5D - B02) is reported as 0.4 Fold of mESC. For the same compound, the p-KAP1 protein ([1]; Eto lane of blot Fig 5D - B02) was 0.0 Fold of mESC, the p-RPA32 protein ([1]; Eto lane of blot Fig 5D - B02) was 0.4 Fold of mESC and the p-p53 protein ([1]; Eto lane of blot Fig 5D - B02) was 1.7 Fold of mESC. The CHK1 protein ([1]; Eto lane of blot Fig 5D - Dox) was 1.6 Fold of mESC, the RAD51 protein ([1]; Eto lane of blot Fig 5D - Dox) was 0.1 Fold of mESC and the p-CHK2 protein ([1]; Eto lane of blot Fig 5D - Dox) was 0.5 Fold of mESC. The p-KAP1 protein ([1]; Eto lane of blot Fig 5D - Dox) was 0.0 Fold of mESC, the p-RPA32 protein ([1]; Eto lane of blot Fig 5D - Dox) was 0.5 Fold of mESC and the p-p53 protein ([1]; Eto lane of blot Fig 5D - Dox) was 4.8 Fold of mESC. For the same compound, the CHK1 protein ([1]; Eto lane of blot Fig 5D - EST) was 0.7 Fold of mESC, the RAD51 protein ([1]; Eto lane of blot Fig 5D - EST) was 1.2 Fold of mESC and the p-CHK2 protein ([1]; Eto lane of blot Fig 5D - EST) was 1.2 Fold of mESC. For the same compound, the p-KAP1 protein ([1]; Eto lane of blot Fig 5D - EST) was 0.0 Fold of mESC, the p-RPA32 protein ([1]; Eto lane of blot Fig 5D - EST) was 0.4 Fold of mESC and the p-p53 protein ([1]; Eto lane of blot Fig 5D - EST) was 3.0 Fold of mESC. The CHK1 protein ([2]; Eto lane of blot Fig 5D - B02) was 0.37 Fold of mESC, the RAD51 protein ([2]; Eto lane of blot Fig 5D - B02) was 0.38 Fold of mESC and the p-CHK2 protein ([2]; Eto lane of blot Fig 5D - B02) was 0.04 Fold of mESC. For the same compound, the p-KAP1 protein ([2]; Eto lane of blot Fig 5D - B02) was 0.00 Fold of mESC, the p-RPA32 protein ([2]; Eto lane of blot Fig 5D - B02) was 0.04 Fold of mESC and the p-p53 protein ([2]; Eto lane of blot Fig 5D - B02) was 1.45 Fold of mESC. For the same compound, the CHK1 protein ([2]; Eto lane of blot Fig 5D - Dox) was 0.6 Fold of mESC, the RAD51 protein ([2]; Eto lane of blot Fig 5D - Dox) was 0.8 Fold of mESC and the p-CHK2 protein ([2]; Eto lane of blot Fig 5D - Dox) was 0.2 Fold of mESC. For the same compound, the p-KAP1 protein ([2]; Eto lane of blot Fig 5D - Dox) was 0.0 Fold of mESC, the p-RPA32 protein ([2]; Eto lane of blot Fig 5D - Dox) was 0.1 Fold of mESC and the p-p53 protein ([2]; Eto lane of blot Fig 5D - Dox) was 3.7 Fold of mESC. For the same compound, the CHK1 protein ([2]; Eto lane of blot Fig 5D - EST) was 0.1 Fold of mESC, the RAD51 protein ([2]; Eto lane of blot Fig 5D - EST) was 0.5 Fold of mESC and the p-CHK2 protein ([2]; Eto lane of blot Fig 5D - EST) was 0.4 Fold of mESC. The p-KAP1 protein ([2]; Eto lane of blot Fig 5D - EST) was 0.0 Fold of mESC, the p-RPA32 protein ([2]; Eto lane of blot Fig 5D - EST) was < 0.1 Fold of mESC and the p-p53 protein ([2]; Eto lane of blot Fig 5D - EST) was 2.0 Fold of mESC. For the same compound, the CHK1 protein ([3]; Eto lane of blot Fig 5D - B02) was 0.9 Fold of mESC, the RAD51 protein ([3]; Eto lane of blot Fig 5D - B02) was 1.9 Fold of mESC and the p-CHK2 protein ([3]; Eto lane of blot Fig 5D - B02) was 0.8 Fold of mESC. The p-KAP1 protein ([3]; Eto lane of blot Fig 5D - B02) was 49.01 Fold of mESC, the p-RPA32 protein ([3]; Eto lane of blot Fig 5D - B02) was 0.7 Fold of mESC and the p-p53 protein ([3]; Eto lane of blot Fig 5D - B02) was 2.1 Fold of mESC. For the same compound, the CHK1 protein ([3]; Eto lane of blot Fig 5D - Dox) was 2.4 Fold of mESC, the RAD51 protein ([3]; Eto lane of blot Fig 5D - Dox) was 1.9 Fold of mESC and the p-CHK2 protein ([3]; Eto lane of blot Fig 5D - Dox) was 1.6 Fold of mESC. For the same compound, the p-KAP1 protein ([3]; Eto lane of blot Fig 5D - Dox) was 29.7 Fold of mESC, the p-RPA32 protein ([3]; Eto lane of blot Fig 5D - Dox) was 1.6 Fold of mESC and the p-p53 protein ([3]; Eto lane of blot Fig 5D - Dox) was 6.9 Fold of mESC. For the same compound, the CHK1 protein ([3]; Eto lane of blot Fig 5D - EST) was 1.3 Fold of mESC, the RAD51 protein ([3]; Eto lane of blot Fig 5D - EST) was 2.4 Fold of mESC and the p-CHK2 protein ([3]; Eto lane of blot Fig 5D - EST) was 1.3 Fold of mESC. For the same compound, the p-KAP1 protein ([3]; Eto lane of blot Fig 5D - EST) was 36.8 Fold of mESC, the p-RPA32 protein ([3]; Eto lane of blot Fig 5D - EST) was 1.0 Fold of mESC and the p-p53 protein ([3]; Eto lane of blot Fig 5D - EST) was 3.7 Fold of mESC. For the same compound, the CHK1 protein ([3]; Fig 4H, Eto, Dox 1, B02, EST) was 1.0 Fold of mESC, the p-ATR protein ([3]; Fig 4H, Eto, Dox 1, B02, EST) was 1.6 Fold of mESC and the p-CHK1 protein ([3]; Fig 4H, Eto, Dox 1, B02, EST) was 2.3 Fold of mESC. The p-RPA32 protein ([3]; Fig 4H, Eto, Dox 1, B02, EST) was 1.2 Fold of mESC and the p-p53 protein ([3]; Fig 4H, Eto, Dox 1, B02, EST) was 6.1 Fold of mESC.

NC(=O)NO [HU, Hydroxyurea] was tested, and the replication fork progression [4] was “decreased replication fork speed”, the replication fork progression [5] was “decreased replication fork speed” and the replication fork progression [6] was “decreased replication fork speed”.
